In patent US12226424B2, “Target protein degradation compounds, their anti-tumor use, their intermediates and use of intermediates” (ShanghaiTech University, priority 2018, dated 2025):

Tests used:
ER protein = biological target: T1, ER protein (Homo sapiens, UniProt P03372); test: Western blot half degradation concentration (DC50) of ER protein in T-47D cells; assay type: cell-based; details: 24 h, read-out: DC50 (nM)/T-47D cell line
T1 construct: detect the expression of ER protein in T-47D cells; endogenous in cells; host or cells: T-47D
T1 sequence (P03372 1-595): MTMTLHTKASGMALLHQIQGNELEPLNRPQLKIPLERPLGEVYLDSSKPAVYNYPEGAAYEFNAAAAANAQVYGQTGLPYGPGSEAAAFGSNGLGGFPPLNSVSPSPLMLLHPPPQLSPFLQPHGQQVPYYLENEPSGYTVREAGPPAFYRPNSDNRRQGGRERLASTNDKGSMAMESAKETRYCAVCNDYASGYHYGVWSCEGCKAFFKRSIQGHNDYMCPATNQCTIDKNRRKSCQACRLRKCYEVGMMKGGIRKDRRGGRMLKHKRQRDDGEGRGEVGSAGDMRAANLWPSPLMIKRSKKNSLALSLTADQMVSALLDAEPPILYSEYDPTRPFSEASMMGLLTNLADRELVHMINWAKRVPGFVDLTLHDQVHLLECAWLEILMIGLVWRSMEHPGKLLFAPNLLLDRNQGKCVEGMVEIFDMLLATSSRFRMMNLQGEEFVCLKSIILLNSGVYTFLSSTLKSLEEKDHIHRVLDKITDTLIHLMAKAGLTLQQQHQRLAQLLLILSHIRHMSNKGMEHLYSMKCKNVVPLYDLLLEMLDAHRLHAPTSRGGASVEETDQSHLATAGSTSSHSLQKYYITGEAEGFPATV
Protocol: ER positive cells T-47D cells (human breast cancer cells) were purchased from the Cell Bank of the Chinese Academy of Sciences;
The cells used in this present disclosure were cultured in a 37° C. incubator containing 5% CO2. The complete cell culture medium was RPMI 1640 medium with 10% fetal bovine serum, and the final concentrations of penicillin and streptomycin were 100 U/mL, respectively. All cells were tested negative for mycoplasma with mycoplasma detection kit before the experiment.
Western Blot Determination of the Half Degradation Concentration (DC50) of the PROTAD Compounds on Target Proteins
The PROTAD compounds of the present disclosure were tested at 5 concentration of 1 nM, 10 nM, 50 nM, 100 nM, 500 nM, respectively, or 5 concentration gradients of 0.04 nM, 0.2 nM, 1 nM, 10 nM, 50 nM, and DMSO and commercial parent inhibitor groups (tamoxifen, toremifene) were set as negative and positive controls at the same time. After the drug treatment for 24 h, cells were washed twice with PBS, and lyzed by adding 50 μL of SDS lysate to each well for lysis on ice for 5 min.

BCR-ABL [1] = biological target: T2, BCR-ABL (Homo sapiens, UniProt P00519); test: Western-blot half-degradation concentration (DC50) / degradation of BCR-ABL in K562 cells; details: 24 h
T2 sequence (P00519 with tags, fused parts or gaps): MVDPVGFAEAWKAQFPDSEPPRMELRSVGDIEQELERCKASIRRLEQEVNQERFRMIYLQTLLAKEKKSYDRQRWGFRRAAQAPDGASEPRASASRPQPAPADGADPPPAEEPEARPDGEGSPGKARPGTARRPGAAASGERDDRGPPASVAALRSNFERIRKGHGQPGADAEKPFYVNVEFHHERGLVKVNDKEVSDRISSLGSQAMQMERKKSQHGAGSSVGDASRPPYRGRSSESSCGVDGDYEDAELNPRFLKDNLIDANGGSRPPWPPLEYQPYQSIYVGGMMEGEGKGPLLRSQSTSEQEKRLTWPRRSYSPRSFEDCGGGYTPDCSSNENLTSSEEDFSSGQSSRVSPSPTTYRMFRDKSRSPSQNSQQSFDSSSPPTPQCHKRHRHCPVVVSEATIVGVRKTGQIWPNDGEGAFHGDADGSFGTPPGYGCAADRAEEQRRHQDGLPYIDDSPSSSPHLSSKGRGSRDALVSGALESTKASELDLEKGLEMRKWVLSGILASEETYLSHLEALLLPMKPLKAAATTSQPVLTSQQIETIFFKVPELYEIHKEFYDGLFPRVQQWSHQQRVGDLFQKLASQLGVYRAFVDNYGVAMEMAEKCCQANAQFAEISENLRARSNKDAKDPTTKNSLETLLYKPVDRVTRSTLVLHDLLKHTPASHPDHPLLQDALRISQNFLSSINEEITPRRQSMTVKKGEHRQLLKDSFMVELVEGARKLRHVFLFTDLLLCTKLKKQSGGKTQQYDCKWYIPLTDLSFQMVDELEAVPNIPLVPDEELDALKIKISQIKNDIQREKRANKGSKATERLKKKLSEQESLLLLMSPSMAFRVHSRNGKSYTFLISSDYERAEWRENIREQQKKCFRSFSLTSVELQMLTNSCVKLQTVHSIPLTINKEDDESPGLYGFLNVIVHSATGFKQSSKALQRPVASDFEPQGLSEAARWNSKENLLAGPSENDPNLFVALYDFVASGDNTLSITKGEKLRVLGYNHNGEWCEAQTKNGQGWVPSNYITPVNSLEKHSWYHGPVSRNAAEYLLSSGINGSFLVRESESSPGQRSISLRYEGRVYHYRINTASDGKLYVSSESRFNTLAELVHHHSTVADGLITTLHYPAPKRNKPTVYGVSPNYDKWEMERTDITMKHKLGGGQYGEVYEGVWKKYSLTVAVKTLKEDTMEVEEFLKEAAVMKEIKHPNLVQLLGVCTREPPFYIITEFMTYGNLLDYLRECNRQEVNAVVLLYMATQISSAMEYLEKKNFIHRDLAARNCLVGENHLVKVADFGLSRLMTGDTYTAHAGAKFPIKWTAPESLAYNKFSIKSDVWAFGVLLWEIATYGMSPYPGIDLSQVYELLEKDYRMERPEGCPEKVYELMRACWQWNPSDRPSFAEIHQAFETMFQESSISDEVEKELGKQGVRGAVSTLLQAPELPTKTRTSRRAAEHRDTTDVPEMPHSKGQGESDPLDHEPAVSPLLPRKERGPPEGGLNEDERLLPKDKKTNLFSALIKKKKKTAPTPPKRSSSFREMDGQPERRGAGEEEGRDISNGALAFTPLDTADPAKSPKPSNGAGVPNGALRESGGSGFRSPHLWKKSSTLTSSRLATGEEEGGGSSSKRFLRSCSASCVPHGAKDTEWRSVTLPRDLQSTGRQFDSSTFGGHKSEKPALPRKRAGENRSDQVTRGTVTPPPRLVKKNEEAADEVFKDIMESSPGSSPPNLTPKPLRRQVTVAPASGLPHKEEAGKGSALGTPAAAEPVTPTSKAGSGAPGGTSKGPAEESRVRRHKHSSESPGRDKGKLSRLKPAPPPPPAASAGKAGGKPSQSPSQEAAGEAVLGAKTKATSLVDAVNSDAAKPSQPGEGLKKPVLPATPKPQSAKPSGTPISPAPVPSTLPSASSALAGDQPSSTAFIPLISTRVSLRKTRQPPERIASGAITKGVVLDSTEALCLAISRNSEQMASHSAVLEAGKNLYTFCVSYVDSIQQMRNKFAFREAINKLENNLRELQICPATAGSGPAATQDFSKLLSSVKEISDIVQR

c-ABL [2] = biological target: T3, c-ABL (Homo sapiens, UniProt P00519); test: Western-blot detection of c-ABL protein degradation (FIGS. 1-15); assay type: cell-based
T3 sequence (P00519 whole entry): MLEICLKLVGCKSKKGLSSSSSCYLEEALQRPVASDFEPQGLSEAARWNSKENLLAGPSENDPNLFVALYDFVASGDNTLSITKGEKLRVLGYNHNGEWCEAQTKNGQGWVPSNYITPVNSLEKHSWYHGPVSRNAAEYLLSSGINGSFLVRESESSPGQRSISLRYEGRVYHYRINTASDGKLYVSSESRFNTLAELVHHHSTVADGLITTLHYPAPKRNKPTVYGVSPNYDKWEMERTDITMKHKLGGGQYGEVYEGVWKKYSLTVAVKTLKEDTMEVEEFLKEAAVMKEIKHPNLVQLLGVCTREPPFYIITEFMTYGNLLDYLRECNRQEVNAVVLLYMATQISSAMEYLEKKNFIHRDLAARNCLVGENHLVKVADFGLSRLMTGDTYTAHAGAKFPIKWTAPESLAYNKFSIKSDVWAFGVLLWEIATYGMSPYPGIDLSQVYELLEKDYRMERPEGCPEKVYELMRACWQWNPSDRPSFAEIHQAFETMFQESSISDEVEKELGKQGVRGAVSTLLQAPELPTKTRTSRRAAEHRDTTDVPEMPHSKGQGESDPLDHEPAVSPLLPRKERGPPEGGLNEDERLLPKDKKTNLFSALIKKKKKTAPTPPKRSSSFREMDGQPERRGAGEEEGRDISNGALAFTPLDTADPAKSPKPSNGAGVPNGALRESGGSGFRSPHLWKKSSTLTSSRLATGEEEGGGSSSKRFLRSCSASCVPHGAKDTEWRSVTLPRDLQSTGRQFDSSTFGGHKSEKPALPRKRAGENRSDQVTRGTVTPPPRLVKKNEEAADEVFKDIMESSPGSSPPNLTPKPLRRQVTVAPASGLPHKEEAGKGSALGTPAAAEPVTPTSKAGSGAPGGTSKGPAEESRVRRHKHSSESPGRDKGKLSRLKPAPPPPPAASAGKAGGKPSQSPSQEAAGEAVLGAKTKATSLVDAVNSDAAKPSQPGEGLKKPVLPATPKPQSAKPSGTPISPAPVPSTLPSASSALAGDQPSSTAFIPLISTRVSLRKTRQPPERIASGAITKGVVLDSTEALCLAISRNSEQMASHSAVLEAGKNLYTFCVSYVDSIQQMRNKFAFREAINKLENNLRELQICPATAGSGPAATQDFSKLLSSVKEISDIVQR

BCR-ABL [3] = biological target: T2, BCR-ABL; test: Western-blot detection of BCR-ABL protein degradation (FIGS. 1-15); assay type: cell-based
c-ABL [4] = biological target: T3, c-ABL; test: Western-blot degradation of c-ABL in K562 cells; details: 24 h

DC50 (ER protein) | ability to degrade c-ABL protein (Western-blot, in words) (c-ABL [2]) | ability to degrade BCR-ABL protein (Western-blot, in words) (BCR-ABL [3]) | SMILES | degradation of BCR-ABL protein (Western-blot) (BCR-ABL [1]) | degradation of c-ABL protein (Western-blot) (c-ABL [4])
10 nM |  |  | CCC(=C(c1ccc(O)cc1)c1ccc(OCCNC(=O)CCCCCCSc2cccc3c2C(=O)N(C2CCC(=O)NC2=O)C3=O)cc1)c1ccc(O)cc1 (stereo not drawn) [SIAIS208170, N-(2-(4-(1,2-bis(4-hydroxyphenyl)but-1-en-1-yl)phenoxy)ethyl)-7-((2-(2,6-dioxopiperidin-3-yl)-1,3-dioxoisoindolin-4-yl)thio)heptanamide] |  | 
10 nM |  |  | CCC(=C(c1ccc(O)cc1)c1ccc(OCCNC(=O)CCCCCCSc2cccc3c2CN(C2CCC(=O)NC2=O)C3=O)cc1)c1ccc(O)cc1 (stereo not drawn) [SIAIS208171, N-(2-(4-(1,2-bis(4-hydroxyphenyl)but-1-en-1-yl)phenoxy)ethyl)-7-((2-(2,6-dioxopiperidin-3-yl)-1-oxoisoindolin-4-yl)thio)heptanamide] |  | 
 | significantly weaker ability to degrade | significantly weaker ability to degrade | Cc1nc(Nc2ncc(C(=O)Nc3c(C)cccc3Cl)s2)cc(N2CCN(C(=O)CNc3cccc4c3C(=O)N(C3CCC(=O)NC3=O)C4=O)CC2)n1 (stereo not drawn) [SIAIS151072, N-(2-chloro-6-methylphenyl)-2-((6-(4-((2-(2,6-dioxopiperidin-3-yl)-1,3-dioxoisoindolin-4-yl)aminoacetyl)piperazin-1-yl)-2-methylpyrimidin-4-yl)amino)thiazole-5-carboxamide] | significantly weaker ability to degrade BCR-ABL and c-ABL proteins | significantly weaker ability to degrade BCR-ABL and c-ABL proteins
